Common to all, as to assay type: in vivo
What all share (conditions): 250 g/ha, evaluated after 13 days

Test [1] has as its system IPOHE. Kind of test: Pre-emergence Test, glasshouse, IPOHE. A digest of the protocol:
(§1)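 Percent plant damage was rated 13 days after treatment on a five-point scale (1 = 0–20% up to 5 = 81–100%). Compound was sprayed at 250 g/ha in acetone/water with 0.5% Tween 20, either one day post-sowing or on 8-day-old plants. Plants were grown at 24/16 °C day/night, 14 h light, 65% humidity.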

Test [2] relates to Echinochloa crus-galli (ECHCG). Kind of test: Post-emergence Test, glasshouse, ECHCG. A digest of the protocol: as §1
For test [3], the system named is Setaria faberi (SETFA). The experiment in a line: Post-emergence Test, glasshouse, SETFA. Put shortly: as §1
Test [4] deals with IPOHE. The experiment in a line: Post-emergence Test, glasshouse, IPOHE. Put shortly: as §1
In test [5] the test system is Amaranthus retoflexus (AMARE). Kind of test: Pre-emergence Test, glasshouse, AMARE. Put shortly:
as §1

Test [6] has as its system ABUTH. Kind of test: Pre-emergence Test, glasshouse, ABUTH. Put shortly: as §1
For test [7], the system named is Setaria faberi (SETFA). The experiment in a line: Pre-emergence Test, glasshouse, SETFA. A digest of the protocol: as §1
Test [8] has as its system Echinochloa crus-galli (ECHCG). The experiment in a line: Pre-emergence Test, glasshouse, ECHCG. A digest of the protocol: as §1
In test [9] the test system is ABUTH. Kind of test: Post-emergence Test, glasshouse, ABUTH. Put shortly: as §1
Test [10] has as its system Amaranthus retoflexus (AMARE). The experiment in a line: Post-emergence Test, glasshouse, AMARE. Put shortly:
as §1

Consider `CC(C)=CCn1nc(Cl)c2cccc(Oc3ncc(Cl)cn3)c21` [Compound 1.067], for which the “percentage damage caused to the plant, five-point scale, IPOHE” value (shortened to “percentage damage caused … IPOHE”) in the test on IPOHE [1] is reported as 1 (1=0-20%); in the test with IPOHE [4], 2 (2=21-40%). For the same compound, the “percentage damage caused to the plant, five-point scale, ECHCG” value (from here on “percentage damage caused … ECHCG”) in test [2] and in [8] was 3 (3=41-60%) in each case. Moreover, the “percentage damage caused to the plant, five-point scale, SETFA” value (“percentage damage caused … SETFA” for short) is 3 (3=41-60%) in the test on Setaria faberi (SETFA) [3] and 4 (4=61-80%) with Setaria faberi (SETFA) [7]. In addition, the entries for the “percentage damage caused to the plant, five-point scale, AMARE” value (“percentage damage caused … AMARE” for short) in test [5] and in test [10] were 3 (3=41-60%) and 4 (4=61-80%), respectively. Moreover, the entries for the “percentage damage caused to the plant, five-point scale, ABUTH” value (“percentage damage caused … ABUTH” for short) in the test with ABUTH [6] and with ABUTH [9] were 2 (2=21-40%) and 3 (3=41-60%), respectively.

For `CC(C)Cn1nc(Cl)c2cccc(Oc3ncc(Cl)cn3)c21` [Compound 1.057], the “percentage damage caused … IPOHE” value in the test on IPOHE [1] and in the test on IPOHE [4] was 1 (1=0-20%) throughout. The figures for the “percentage damage caused … ECHCG” value in [2] and in test [8] were 1 (1=0-20%) and 2 (2=21-40%), respectively. Also, the “percentage damage caused … SETFA” value is recorded as 1 (1=0-20%) in the test with Setaria faberi (SETFA) [3] and 4 (4=61-80%) in the test on Setaria faberi (SETFA) [7]. The figures for the “percentage damage caused … AMARE” value in [5] and in test [10] were 2 (2=21-40%) and 3 (3=41-60%), respectively. The “percentage damage caused … ABUTH” value with ABUTH [6] and in the test on ABUTH [9] was 2 (2=21-40%) in each case.

On to `FC(F)(F)CCCn1nc(Cl)c2c(Cl)c(Br)cc(Oc3ncc(Cl)cn3)c21` [Compound 1.019], for which the “percentage damage caused … IPOHE” value in the test with IPOHE [1] and in the test with IPOHE [4] was 1 (1=0-20%) each time. For the same compound, the “percentage damage caused … ECHCG” value was 2 (2=21-40%) in test [2] and 1 (1=0-20%) in test [8]. In addition, the “percentage damage caused … SETFA” value in the test on Setaria faberi (SETFA) [3] is on record as 2 (2=21-40%); in the test on Setaria faberi (SETFA) [7], 1 (1=0-20%). Besides, the “percentage damage caused … AMARE” value was 1 (1=0-20%) in test [5] and 4 (4=61-80%) in test [10]. Also, the “percentage damage caused … ABUTH” value with ABUTH [6] and in the test on ABUTH [9] was 1 (1=0-20%) each time.

For the compound `FC(F)(F)CCCn1ncc2c(Cl)ccc(Oc3ncc(Cl)cn3)c21` [Compound 1.013, 4-chloro-7-(5-chloropyrimidin-2-yl)oxy-1-(4,4,4-trifluorobutyl)indazole], the entries for the “percentage damage caused … IPOHE” value in the test with IPOHE [1] and with IPOHE [4] were 1 (1=0-20%) and 2 (2=21-40%), respectively. Also, the “percentage damage caused … ECHCG” value in [2] and in test [8] was 5 (5=81-100%) throughout. Moreover, the “percentage damage caused … SETFA” value with Setaria faberi (SETFA) [3] and with Setaria faberi (SETFA) [7] was 5 (5=81-100%) throughout. Also, the “percentage damage caused … AMARE” value in test [5] and in [10] was 5 (5=81-100%) in each case. The “percentage damage caused … ABUTH” value is 2 (2=21-40%) in the test on ABUTH [6] and 5 (5=81-100%) in the test on ABUTH [9].

For `N#Cc1cc(Cl)cnc1Oc1cc(Cl)cc2cnn(CCCC(F)(F)F)c12` [Compound 1.017], the “percentage damage caused … IPOHE” value in the test on IPOHE [1] and in the test with IPOHE [4] was 1 (1=0-20%) in each case. In addition, the “percentage damage caused … ECHCG” value in [2] and in [8] was 1 (1=0-20%) throughout. The “percentage damage caused … SETFA” value with Setaria faberi (SETFA) [3] and with Setaria faberi (SETFA) [7] was 1 (1=0-20%) in each case. The “percentage damage caused … AMARE” value is given as 1 (1=0-20%) in [5] and 4 (4=61-80%) in [10]. Moreover, the “percentage damage caused … ABUTH” value in the test on ABUTH [6] and in the test with ABUTH [9] was 1 (1=0-20%) throughout.

Take `FC(F)(F)CCCn1nc(Cl)c2ccc(Br)c(Oc3ncc(Cl)cn3)c21` [Compound 1.037]: the “percentage damage caused … IPOHE” value with IPOHE [1] and in the test on IPOHE [4] was 1 (1=0-20%) throughout. Also, the “percentage damage caused … ECHCG” value in test [2] and in test [8] was 1 (1=0-20%) each time. The “percentage damage caused … SETFA” value in the test with Setaria faberi (SETFA) [3] and with Setaria faberi (SETFA) [7] was 1 (1=0-20%) in each case. The “percentage damage caused … AMARE” value in test [5] is reported as 1 (1=0-20%); in test [10], 2 (2=21-40%). In addition, the “percentage damage caused … ABUTH” value in the test with ABUTH [6] and in the test on ABUTH [9] was 1 (1=0-20%) in each case.

For `FC(F)CCCn1nc(Cl)c2cccc(Oc3ncc(Cl)cn3)c21` [Compound 1.040], the “percentage damage caused … IPOHE” value with IPOHE [1] was 2 (2=21-40%); in the test with IPOHE [4], 5 (5=81-100%). Besides, the “percentage damage caused … ECHCG” value in [2] and in test [8] was 5 (5=81-100%) in each case. The figures for the “percentage damage caused … SETFA” value with Setaria faberi (SETFA) [3] and with Setaria faberi (SETFA) [7] were 4 (4=61-80%) and 5 (5=81-100%), respectively. In addition, the “percentage damage caused … AMARE” value in [5] and in test [10] was 5 (5=81-100%) each time. Moreover, the “percentage damage caused … ABUTH” value with ABUTH [6] and with ABUTH [9] was 4 (4=61-80%) throughout.

Consider `COc1cc(Oc2cccc3cnn(CCCC(F)(F)F)c23)ncn1` [Compound 1.012], for which the “percentage damage caused … IPOHE” value in the test on IPOHE [1] and with IPOHE [4] was 1 (1=0-20%) in each case. In addition, the “percentage damage caused … ECHCG” value in test [2] and in test [8] was 1 (1=0-20%) each time. For the same compound, the “percentage damage caused … SETFA” value in the test with Setaria faberi (SETFA) [3] and in the test on Setaria faberi (SETFA) [7] was 1 (1=0-20%) in each case. Also, the “percentage damage caused … AMARE” value in test [5] is on record as 2 (2=21-40%); in test [10] it was 1 (1=0-20%). Also, the “percentage damage caused … ABUTH” value in the test on ABUTH [6] and with ABUTH [9] was 1 (1=0-20%) in each case.

In the case of `CC(C)=CCCn1nc(Cl)c2cccc(Oc3ncc(Cl)cn3)c21` [Compound 1.066], the “percentage damage caused … IPOHE” value in the test with IPOHE [1] was 1 (1=0-20%); with IPOHE [4] it was 2 (2=21-40%). In addition, the “percentage damage caused … ECHCG” value in test [2] is given as 3 (3=41-60%); in test [8], 4 (4=61-80%). In addition, the “percentage damage caused … SETFA” value with Setaria faberi (SETFA) [3] is 3 (3=41-60%); in the test with Setaria faberi (SETFA) [7], 5 (5=81-100%). Moreover, the “percentage damage caused … AMARE” value is given as 3 (3=41-60%) in test [5] and 4 (4=61-80%) in test [10]. The “percentage damage caused … ABUTH” value in the test on ABUTH [6] is 2 (2=21-40%); in the test on ABUTH [9], 4 (4=61-80%).

`FC(F)(F)CCCCn1nc(Cl)c2cccc(Oc3ncc(Cl)cn3)c21` [Compound 1.068]: the “percentage damage caused … IPOHE” value with IPOHE [1] and with IPOHE [4] was 2 (2=21-40%) throughout. The “percentage damage caused … ECHCG” value in [2] is listed as 3 (3=41-60%); in test [8], 4 (4=61-80%). The “percentage damage caused … SETFA” value in the test on Setaria faberi (SETFA) [3] is on record as 3 (3=41-60%); in the test with Setaria faberi (SETFA) [7] it was 5 (5=81-100%). Moreover, the “percentage damage caused … AMARE” value in [5] and in test [10] was 5 (5=81-100%) throughout. Further, the “percentage damage caused … ABUTH” value with ABUTH [6] is recorded as 2 (2=21-40%); with ABUTH [9], 4 (4=61-80%).

With `N#Cc1cc(Cl)cnc1Oc1cccc2c(Cl)nn(CCCC(F)(F)F)c12` [Compound 1.008], the figures for the “percentage damage caused … IPOHE” value in the test with IPOHE [1] and with IPOHE [4] were 1 (1=0-20%) and 2 (2=21-40%), respectively. For the same compound, the “percentage damage caused … ECHCG” value in test [2] and in test [8] was 4 (4=61-80%) throughout. For the same compound, the “percentage damage caused … SETFA” value in the test with Setaria faberi (SETFA) [3] and in the test with Setaria faberi (SETFA) [7] was 4 (4=61-80%) each time. Besides, the “percentage damage caused … AMARE” value in test [5] was 4 (4=61-80%); in [10], 5 (5=81-100%). For the same compound, the entries for the “percentage damage caused … ABUTH” value in the test on ABUTH [6] and in the test with ABUTH [9] were 2 (2=21-40%) and 4 (4=61-80%), respectively.

The record behind these values is patent US20230002357A1, “7-PYRIMIDINE-2-YL-OXY-INDAZOLE DERIVATIVES AND THEIR USE AS HERBICIDES” (SYNGENTA CROP PROTECTION AG, priority 2019, published 2023).
